# Measured values as given in BindingDB's records for doi:10.1021/jm9706325 (Monash University (Parkville Campus), 1999).
# Target: 5-hydroxytryptamine receptor 1D (Bos taurus)
# Test: Binding affinity against 5-hydroxytryptamine 1D receptor in calf caudate homogenates.
row,Ki,SMILES
1,1320 nM,CN(C)CCc1c(C(=O)NCc2ccccc2)[nH]c2ccc(CCN3C(=O)CNC3=O)cc12
2,3800 nM,CN(C)CCc1c(C(=O)NCc2ccccc2)[nH]c2ccc(CCN3C(=O)NC(C)(C)C3=O)cc12
